In US20030113813A1, “Methods and devices for the integrated discovery of cell culture environments” (priority 2001, published 2003):

System: MC3T3-E1 cells
Assay: Cell attachment and growth on modified (HA-coated, periodate-oxidized) surfaces carrying bioactive agents
Assay type: cell-based, murine
Conditions: for cell attachment and growth: FIG. 4A, immobilized HA surface treated with lowest (3 mM) periodate concentration, collagen 3.2 mg/ml, laminin 2 mg/ml
Excerpt: MC3T3-E1 cells were used to determine the effect of different bioactive agents for creation of bioactive surfaces influencing the growth and differentiation of these osteoblasts (also considered to be osteogenic stem cells). These cells are from a clonal line of murine calvaria-derived osteoblast (establishment of a clonal osteogenic cell line from newborn mouse calvaria describe in J Oral Biol 23:899 (1981)). The cells are maintained in α-MEM (GIBCO Catalog #12561) supplemented with 2% fetal calf serum (FCS; inactivated) and 100 units or μg/ml penicillin/streptomycin.
The cells were seeded at a concentration of approximately 10^4 cells/20 ml culture medium in a 250 ml canted neck polystyrene tissue culture-treated flask. Cells were cultured until they reach about 2×10^6 cells/flask. Cells were harvested and resuspended in 5 ml of α-MEM with 2% FCS to a final cell concentration of about 4×10^4 cells/100 μl.
The surface modified slide was placed into a polystyrene Petri dish and covered with the cells for 30 minutes. […] To quantitate cell attachment and growth, an image of the slide or other surface after staining with hematoxylin/eosin was captured using a color scanner, and the density determined using the Scion Image analysis program.

| Substance | cell growth on ECM peptide surface vs. control surface (FIGS. 4B-4F, RGDSP 1 mg/ml deposited on oxidized HA surface) | cell attachment and growth | cell density on bioactive agent (FIG. 2, cells grown on microarray of bioactive agents coupled to HA surface, fluorescent staining) |
| --- | --- | --- | --- |
| Arg-Gly-Asp-Ser-Pro (RGDSP) (printed: Arg-Gly-Asp-Ser-Pro) [ECM adhesion peptide from AnaSpec Inc, reference compound] | cells grew only on the surfaces onto which RGDSP was deposited | – | – |
| collagen | – | supported cell attachment and growth | – |
| laminin | – | supported cell attachment and growth | cell density was greater on Vitrogen™ than on laminin |
